Assays:
HT-29 = assay: Antiproliferative activity against human HT-29 cells; format: functional, cell-based
[1] = Plasma concentration in mouse at 33 mg/kg, po after 4 hrs; format: ADME, organism-based; design: dose 33 mg/kg, route oral
[2] = Half life in mouse at 5 mg/kg, iv; format: ADME, organism-based; design: dose 5 mg/kg, route intravenous; settings: in vivo
[3] = target: Serine/threonine-protein kinase Sgk1 (Homo sapiens, UniProt O00141); assay: Inhibition of SGK1
[4] = Plasma concentration in rat at 3 mg/kg, iv after 8 hrs; format: ADME, organism-based; design: dose 3 mg/kg, route intravenous
[5] = target: Cyclin-dependent kinase 2 (Homo sapiens, UniProt P24941)
[6] = target: Proto-oncogene tyrosine-protein kinase Src (Homo sapiens, UniProt P12931); assay: Inhibition of SRC
[7] = target: [Pyruvate dehydrogenase (acetyl-transferring)] kinase isozyme 1, mitochondrial (Homo sapiens) (UniProt Q15118); assay: Inhibition of PDK1 at 2 uM
[8] = target: Ribosomal protein S6 kinase alpha-3 (Homo sapiens) (UniProt P51812); assay: Inhibition of RSK2 at 1 uM
[9] = target: Dual specificity tyrosine-phosphorylation-regulated kinase 1A (Homo sapiens) (UniProt Q13627); assay: Inhibition of DYRK1A at 1 uM
[10] = target: Protein kinase C beta type (Homo sapiens) (UniProt P05771); assay: Inhibition of PKCbeta1 at 1 uM
Sequence of Protein kinase C beta type (Homo sapiens) (P05771 2-671 limits assumed): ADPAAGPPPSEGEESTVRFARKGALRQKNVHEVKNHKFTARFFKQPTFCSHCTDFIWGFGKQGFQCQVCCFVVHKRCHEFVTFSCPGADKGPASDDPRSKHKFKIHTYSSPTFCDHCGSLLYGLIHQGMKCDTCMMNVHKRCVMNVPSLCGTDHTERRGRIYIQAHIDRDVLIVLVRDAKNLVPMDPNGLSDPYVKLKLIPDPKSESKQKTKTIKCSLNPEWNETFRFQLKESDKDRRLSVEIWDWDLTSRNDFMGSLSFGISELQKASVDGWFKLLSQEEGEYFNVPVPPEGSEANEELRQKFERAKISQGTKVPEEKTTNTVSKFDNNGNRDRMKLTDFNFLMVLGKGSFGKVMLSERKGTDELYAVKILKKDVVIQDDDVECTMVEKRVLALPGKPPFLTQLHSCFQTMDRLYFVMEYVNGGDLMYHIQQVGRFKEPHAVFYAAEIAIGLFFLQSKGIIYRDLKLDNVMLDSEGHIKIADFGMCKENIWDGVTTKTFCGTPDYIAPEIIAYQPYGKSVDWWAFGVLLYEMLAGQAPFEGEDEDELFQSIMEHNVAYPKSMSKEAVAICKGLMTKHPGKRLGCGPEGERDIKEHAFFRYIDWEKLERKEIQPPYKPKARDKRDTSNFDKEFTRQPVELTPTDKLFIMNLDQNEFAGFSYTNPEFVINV

[11] = target: MAP kinase-activated protein kinase 2 (Homo sapiens) (UniProt P49137); assay: Inhibition of MAPKAPK-2 at 1 uM
[12] = target: Serine/threonine-protein kinase D1 (Homo sapiens) (UniProt Q15139); assay: Inhibition of PRKD1 at 1 uM
[13] = target: RAC-beta serine/threonine-protein kinase (Homo sapiens) (UniProt P31751); assay: Inhibition of AKT2 at 1 uM
[14] = target: Misshapen-like kinase 1 (Homo sapiens) (UniProt Q8N4C8); assay: Inhibition of MINK at 1 uM
[15] = target: Serine/threonine-protein kinase PLK1 (Homo sapiens, UniProt P53350); assay: Inhibition of PLK1
[16] = target: Tyrosine-protein kinase CSK (Homo sapiens) (UniProt P41240); assay: Inhibition of CSK at 1 uM
[17] = target: Testis-specific serine/threonine-protein kinase 2 (Homo sapiens) (UniProt Q96PF2); assay: Inhibition of TSSK2 at 1 uM
[18] = target: Serine/threonine-protein kinase BRSK2 (Homo sapiens) (UniProt Q8IWQ3); assay: Inhibition of BRSK2 at 1 uM
Sequence of Serine/threonine-protein kinase BRSK2 (Homo sapiens) (Q8IWQ3 whole entry): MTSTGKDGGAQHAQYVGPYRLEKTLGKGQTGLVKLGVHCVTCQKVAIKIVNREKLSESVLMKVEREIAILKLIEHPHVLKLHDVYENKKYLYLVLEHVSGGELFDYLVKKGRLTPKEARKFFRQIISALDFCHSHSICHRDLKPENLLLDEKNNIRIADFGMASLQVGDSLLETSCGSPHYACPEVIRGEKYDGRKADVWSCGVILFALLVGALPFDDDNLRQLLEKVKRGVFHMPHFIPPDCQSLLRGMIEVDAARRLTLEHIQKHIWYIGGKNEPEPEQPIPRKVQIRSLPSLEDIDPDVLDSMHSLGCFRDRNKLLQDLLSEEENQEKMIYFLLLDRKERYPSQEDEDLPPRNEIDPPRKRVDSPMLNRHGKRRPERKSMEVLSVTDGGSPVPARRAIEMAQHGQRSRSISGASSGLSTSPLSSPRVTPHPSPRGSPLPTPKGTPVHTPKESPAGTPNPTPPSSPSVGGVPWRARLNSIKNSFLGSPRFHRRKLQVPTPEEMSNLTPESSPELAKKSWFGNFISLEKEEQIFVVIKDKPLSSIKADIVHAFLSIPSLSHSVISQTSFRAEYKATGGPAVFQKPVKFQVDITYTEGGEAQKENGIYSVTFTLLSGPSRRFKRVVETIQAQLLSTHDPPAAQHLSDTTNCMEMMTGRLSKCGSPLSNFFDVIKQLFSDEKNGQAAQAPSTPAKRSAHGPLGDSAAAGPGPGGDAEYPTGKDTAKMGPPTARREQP

[19] = target: Mitogen-activated protein kinase 10 (Homo sapiens, UniProt P53779); assay: Inhibition of JNK3
[20] = target: Mitogen-activated protein kinase kinase kinase 8 (Homo sapiens, UniProt P41279); assay: Inhibition of COT
[21] = Plasma concentration in rat at 10 mg/kg, po after 4 hrs; format: ADME, organism-based; design: dose 10 mg/kg, route oral
[22] = target: Tyrosine-protein kinase BTK (Homo sapiens) (UniProt Q06187); assay: Inhibition of BTK at 1 uM
[23] = target: Mitogen-activated protein kinase 9 (Homo sapiens) (UniProt P45984); assay: Inhibition of JNK2 at 2 uM
[24] = target: PAS domain-containing serine/threonine-protein kinase (Homo sapiens) (UniProt Q96RG2); assay: Inhibition of PASK at 1 uM
[25] = target: Protein-tyrosine kinase 2-beta (Homo sapiens) (UniProt Q14289); assay: Inhibition of PYK2 at 1 uM
[26] = Plasma concentration in mouse at 5 mg/kg, iv after 4 hrs; format: ADME, organism-based; design: dose 5 mg/kg, route intravenous
[27] = target: Proto-oncogene tyrosine-protein kinase ROS (Homo sapiens) (UniProt P08922); assay: Inhibition of ROS at 1 uM
[28] = target: Tyrosine-protein kinase ABL1 (Homo sapiens) (UniProt P00519); assay: Inhibition of ABL1 at 1 uM
[29] = target: Serine/threonine-protein kinase 4 (Homo sapiens) (UniProt Q13043); assay: Inhibition of MST1 at 1 uM
[30] = target: RAF proto-oncogene serine/threonine-protein kinase (Homo sapiens) (UniProt P04049); assay: Inhibition of cRAF at 2 uM
[31] = target: Ribosomal protein S6 kinase alpha-4 (Homo sapiens) (UniProt O75676); assay: Inhibition of MSK2 at 1 uM
[32] = target: Serine/threonine-protein kinase Sgk2 (Homo sapiens) (UniProt Q9HBY8); assay: Inhibition of SGK2 at 1 uM
[33] = target: Cyclin-dependent kinase 5 (Homo sapiens) (UniProt Q00535); assay: Inhibition of CDK5 at 1 uM
[34] = target: Mitogen-activated protein kinase kinase kinase 7 (Homo sapiens, UniProt O43318); assay: Inhibition of TAK1
[35] = Volume of distribution at steady state in mouse at 5 mg/kg, iv; format: ADME, organism-based; design: dose 5 mg/kg, route intravenous; settings: in vivo, read-out: Vdss
[36] = target: Mitogen-activated protein kinase 12 (Homo sapiens) (UniProt P53778); assay: Inhibition of P38gamma at 2 uM
[37] = target: Ephrin type-B receptor 2 (Homo sapiens) (UniProt P29323); assay: Inhibition of EPH-B2 at 1 uM
[38] = target: Tyrosine-protein kinase Lck (Homo sapiens) (UniProt P06239); assay: Inhibition of LCK at 2 uM
Sequence of Tyrosine-protein kinase Lck (Homo sapiens) (P06239 2-509 limits assumed): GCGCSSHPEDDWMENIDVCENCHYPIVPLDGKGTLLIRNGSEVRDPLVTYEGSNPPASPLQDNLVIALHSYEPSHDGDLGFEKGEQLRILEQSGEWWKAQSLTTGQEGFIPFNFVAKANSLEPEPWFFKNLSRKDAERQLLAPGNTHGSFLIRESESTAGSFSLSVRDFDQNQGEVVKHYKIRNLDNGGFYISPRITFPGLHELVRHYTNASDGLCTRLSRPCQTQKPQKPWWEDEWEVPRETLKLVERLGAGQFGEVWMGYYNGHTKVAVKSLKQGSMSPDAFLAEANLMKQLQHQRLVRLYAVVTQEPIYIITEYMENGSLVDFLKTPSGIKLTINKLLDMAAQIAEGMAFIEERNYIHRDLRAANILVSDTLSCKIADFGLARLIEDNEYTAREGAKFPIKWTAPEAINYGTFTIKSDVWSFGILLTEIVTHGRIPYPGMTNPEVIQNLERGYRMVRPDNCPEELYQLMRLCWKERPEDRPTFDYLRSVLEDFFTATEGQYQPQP

Focal adhesion kinase 1 = Focal adhesion kinase 1 (Homo sapiens, UniProt Q05397); assay: Inhibition of FAK
[39] = target: Serine/threonine-protein kinase DCLK2 (Homo sapiens) (UniProt Q8N568); assay: Inhibition of DCAMKL2 at 1 uM
[40] = target: Tyrosine-protein kinase Lyn (Homo sapiens) (UniProt P07948); assay: Inhibition of LYN at 2 uM
Sequence of Tyrosine-protein kinase Lyn (Homo sapiens) (P07948 2-512 limits assumed): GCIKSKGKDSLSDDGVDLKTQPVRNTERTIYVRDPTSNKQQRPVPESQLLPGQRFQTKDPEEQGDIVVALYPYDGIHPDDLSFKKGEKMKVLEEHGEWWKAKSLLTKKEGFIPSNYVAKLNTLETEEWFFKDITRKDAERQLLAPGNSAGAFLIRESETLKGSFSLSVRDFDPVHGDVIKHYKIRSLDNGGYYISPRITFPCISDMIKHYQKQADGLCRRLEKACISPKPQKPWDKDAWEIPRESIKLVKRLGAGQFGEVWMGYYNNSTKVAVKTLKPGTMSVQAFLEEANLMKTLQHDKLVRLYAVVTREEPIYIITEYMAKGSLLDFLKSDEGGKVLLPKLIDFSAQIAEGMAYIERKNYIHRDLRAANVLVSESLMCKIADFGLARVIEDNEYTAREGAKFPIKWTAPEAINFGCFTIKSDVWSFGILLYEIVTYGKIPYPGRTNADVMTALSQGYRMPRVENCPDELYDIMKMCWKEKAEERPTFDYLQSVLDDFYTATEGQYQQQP

[41] = target: Macrophage-stimulating protein receptor (Homo sapiens) (UniProt Q04912); assay: Inhibition of RON at 1 uM
Sequence of Macrophage-stimulating protein receptor (Homo sapiens) (Q04912 25-304 limits assumed): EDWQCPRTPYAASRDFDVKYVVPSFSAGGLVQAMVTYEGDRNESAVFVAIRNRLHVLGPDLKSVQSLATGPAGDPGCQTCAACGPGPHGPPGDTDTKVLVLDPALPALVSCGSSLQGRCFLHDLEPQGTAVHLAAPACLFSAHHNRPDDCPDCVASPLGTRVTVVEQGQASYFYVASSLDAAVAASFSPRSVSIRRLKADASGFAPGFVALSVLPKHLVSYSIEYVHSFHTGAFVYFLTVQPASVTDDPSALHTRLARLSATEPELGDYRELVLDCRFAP
Sequence of Macrophage-stimulating protein receptor (Homo sapiens) (Q04912 310-1400 limits assumed): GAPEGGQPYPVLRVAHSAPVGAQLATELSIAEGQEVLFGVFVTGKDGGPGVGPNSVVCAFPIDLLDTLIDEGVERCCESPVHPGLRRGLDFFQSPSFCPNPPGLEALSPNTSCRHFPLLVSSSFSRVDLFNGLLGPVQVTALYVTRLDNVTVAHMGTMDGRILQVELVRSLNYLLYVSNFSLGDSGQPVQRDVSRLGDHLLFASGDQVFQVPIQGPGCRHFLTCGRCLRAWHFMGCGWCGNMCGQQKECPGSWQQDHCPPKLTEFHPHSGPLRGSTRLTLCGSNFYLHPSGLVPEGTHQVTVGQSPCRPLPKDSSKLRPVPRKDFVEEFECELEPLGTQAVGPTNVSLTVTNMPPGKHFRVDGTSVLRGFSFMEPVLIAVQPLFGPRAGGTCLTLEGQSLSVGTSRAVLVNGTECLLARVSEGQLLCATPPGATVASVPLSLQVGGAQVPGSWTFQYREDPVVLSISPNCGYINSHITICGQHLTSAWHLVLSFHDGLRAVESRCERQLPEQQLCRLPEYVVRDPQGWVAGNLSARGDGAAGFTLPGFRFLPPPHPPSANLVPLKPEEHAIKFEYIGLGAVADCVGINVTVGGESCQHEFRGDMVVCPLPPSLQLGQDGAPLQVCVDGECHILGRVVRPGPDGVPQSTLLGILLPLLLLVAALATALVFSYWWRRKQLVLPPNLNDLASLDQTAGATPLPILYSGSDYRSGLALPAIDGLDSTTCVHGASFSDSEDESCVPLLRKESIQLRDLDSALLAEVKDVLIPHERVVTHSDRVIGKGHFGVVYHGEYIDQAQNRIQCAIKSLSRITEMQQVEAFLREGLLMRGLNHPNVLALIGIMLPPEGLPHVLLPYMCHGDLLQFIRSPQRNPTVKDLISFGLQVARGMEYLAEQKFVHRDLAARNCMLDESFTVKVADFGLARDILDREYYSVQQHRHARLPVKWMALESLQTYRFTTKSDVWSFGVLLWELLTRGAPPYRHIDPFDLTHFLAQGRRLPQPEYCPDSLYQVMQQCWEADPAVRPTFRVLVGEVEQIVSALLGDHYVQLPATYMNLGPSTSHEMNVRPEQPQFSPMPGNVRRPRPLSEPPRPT

[42] = target: Mitogen-activated protein kinase 13 (Homo sapiens) (UniProt O15264); assay: Inhibition of P38delta at 2 uM
[43] = target: Protein kinase C beta type (Homo sapiens) (UniProt P05771); assay: Inhibition of PKCbeta2 at 2 uM
[44] = target: Serine/threonine-protein kinase MARK1 (Homo sapiens) (UniProt Q9P0L2); assay: Inhibition of MARK1 at 1 uM
[45] = target: Serine/threonine-protein kinase Sgk1 (Homo sapiens) (UniProt O00141); assay: Inhibition of SGK1 at 1 uM
[46] = target: Tyrosine-protein kinase ITK/TSK (Homo sapiens, UniProt Q08881); assay: Inhibition of ITK
[47] = target: Platelet-derived growth factor receptor alpha (Homo sapiens) (UniProt P16234); assay: Inhibition of PDGFRalpha at 2 uM
Sequence of Platelet-derived growth factor receptor alpha (Homo sapiens) (P16234 whole entry): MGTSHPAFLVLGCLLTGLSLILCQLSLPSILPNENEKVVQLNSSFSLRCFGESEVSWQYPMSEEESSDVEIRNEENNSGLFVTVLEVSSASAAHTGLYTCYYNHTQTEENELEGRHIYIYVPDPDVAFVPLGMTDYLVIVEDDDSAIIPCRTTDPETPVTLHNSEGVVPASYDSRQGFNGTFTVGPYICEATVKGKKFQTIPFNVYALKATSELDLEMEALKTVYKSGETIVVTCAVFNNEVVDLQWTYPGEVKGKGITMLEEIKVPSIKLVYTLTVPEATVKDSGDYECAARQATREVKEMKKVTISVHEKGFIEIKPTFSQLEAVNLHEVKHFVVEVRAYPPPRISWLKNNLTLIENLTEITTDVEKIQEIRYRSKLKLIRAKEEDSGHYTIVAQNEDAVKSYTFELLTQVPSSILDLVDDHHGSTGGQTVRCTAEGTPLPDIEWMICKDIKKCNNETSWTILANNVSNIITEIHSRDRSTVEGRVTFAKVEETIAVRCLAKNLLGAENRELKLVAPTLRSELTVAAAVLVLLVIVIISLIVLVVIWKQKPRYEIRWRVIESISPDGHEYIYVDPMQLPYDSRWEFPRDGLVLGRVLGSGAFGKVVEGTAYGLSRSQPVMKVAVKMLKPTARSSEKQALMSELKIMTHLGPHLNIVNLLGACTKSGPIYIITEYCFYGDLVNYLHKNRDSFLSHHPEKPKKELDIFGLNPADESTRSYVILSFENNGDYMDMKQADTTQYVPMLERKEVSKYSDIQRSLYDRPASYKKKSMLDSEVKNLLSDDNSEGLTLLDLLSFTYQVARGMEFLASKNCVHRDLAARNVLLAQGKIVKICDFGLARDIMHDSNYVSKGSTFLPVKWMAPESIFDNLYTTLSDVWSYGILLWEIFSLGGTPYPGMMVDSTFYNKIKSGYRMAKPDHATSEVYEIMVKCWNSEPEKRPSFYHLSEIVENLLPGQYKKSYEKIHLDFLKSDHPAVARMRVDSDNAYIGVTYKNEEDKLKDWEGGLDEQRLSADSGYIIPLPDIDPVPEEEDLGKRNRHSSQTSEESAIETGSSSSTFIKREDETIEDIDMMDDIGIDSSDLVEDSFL

[48] = target: Serine/threonine-protein kinase N2 (Homo sapiens) (UniProt Q16513); assay: Inhibition of PRK2 at 2 uM
[49] = target: Tyrosine-protein kinase ZAP-70 (Homo sapiens, UniProt P43403); assay: Inhibition of ZAP70
[50] = target: Serine/threonine-protein kinase MARK2 (Homo sapiens) (UniProt Q7KZI7); assay: Inhibition of PAR-1Balpha at 1 uM

`Cc1cnc(Nc2ccc(F)cc2Cl)nc1-c1c[nH]c(C(=O)N[C@H](CO)c2cccc(Cl)c2)c1` showed an IC50 (HT-29) of 0.048 µM, a concentration at 4 h [1] of 488 ng/mL and a half-life [2] of 1.6 h. For the same molecule, the Ki [3] was > 10 µM, the concentration at 8 h [4] was 50 ng/mL and the Ki [5] was 0.852 µM. For the same molecule, the Ki [6] was > 4 µM, the inhibition [7] was 10% and the inhibition [8] was 6%. For the same molecule, the inhibition [9] was 3%, the inhibition [10] was 4% and the inhibition [11] was 0%. For the same molecule, the inhibition [12] was 43%, the inhibition [13] was 0% and the inhibition [14] was 18%. For the same molecule, the Ki [15] was > 4 µM, the inhibition [16] was 3% and the inhibition [17] was 3%. For the same molecule, the inhibition [18] was 2%, the Ki [19] was 1.4 µM and the Ki [20] was > 4 µM. For the same molecule, the concentration at 4 h [21] was 329 ng/mL, the inhibition [22] was 5% and the inhibition [23] was 43%. For the same molecule, the inhibition [24] was 19%, the inhibition [25] was 6% and the concentration at 4 h [26] was 79 ng/mL. It also gave an inhibition [27] of 3%, an inhibition [28] of 3% and an inhibition [29] of 4%. The inhibition [30] was 3%, the inhibition [31] was 6% and the inhibition [32] was 41%. It also gave an inhibition [33] of 24%, a Ki [34] of 3 µM and a Vd [35] of 5.6 L/kg. For the same molecule, the inhibition [36] was 56%, the inhibition [37] was 0% and the inhibition [38] was 3%. The Ki (Focal adhesion kinase 1) was > 10 µM, the inhibition [39] was 1% and the inhibition [40] was 7%. The inhibition [41] was 1%, the inhibition [42] was 54% and the inhibition [43] was 4%. For the same molecule, the inhibition [44] was 12%, the inhibition [45] was 15% and the Ki [46] was > 4 µM. For the same molecule, the inhibition [47] was 3%, the inhibition [48] was 14% and the Ki [49] was > 4 µM. It also gave an inhibition [50] of 5%.
